This note sets out measurements from US5852011A, “Benzimidazole derivatives” (Mitsui Chemicals, Inc., priority 1994, dated 1998).

SMILES strings stand for the structures. ≈ marks a conversion by molar mass, not a printed value. Counter-ions that a name gives are not always drawn.

For assay [1], the system named is A(adenine)-T(thymine) DNA copolymer. The assay can be described thus: Change in Tm (melting temperature) of DNA copolymer on addition of compound (Test 1). Type of assay: binding. The note with it: for ΔTm: difference between Tm with and without compound, citrated buffer. The procedure:
To investigate bonding of these compounds with DNA, changes in Tm (melting temperature) were measured. With respect of each of these compounds, the measurement was conducted by determining the difference between Tm measured when a citrated buffer solution of an A(adenine)-T(thymine) DNA copolymer was added with the compound and that measured when the compound was not added. For the measurement, a spectrophotometer ("HITACHI U-3200 MODEL") was used and for temperature control, "HITACHI SPR-10 MODEL" was used.

In another assay the test system is mouse B16 melanoma cells. The assay can be described thus: In vitro inhibition of proliferation of tumored cells, mouse B16 melanoma (Test 2). Type of assay: cell-based. The note with it: 3 days in 5% CO2 at 37° C., 96-well plate; for IC50: Mus musculus, B16, 72 h, read-out: 50% Inhibition. The procedure: A description will next be made of antitumor activities of these compounds. Their antitumor activities were determined by measuring their in vitro inhibition of proliferation of tumored cells. Namely, mouse B16 melanoma cells were spread over a 96-well culture plate. One day later, each drug was applied. The melanoma cells were then incubated for 3 days in 5% CO2 at 37° C. Following the method reported in Cancer Res., 48, 589-601(1988), the concentration of the drug required to induce 50% inhibition on the proliferation was determined. As a comparative example, the results obtained from the application of distamycin are also shown.

Another assay has as its system P388 leukemia cells. The assay can be described thus: In vivo antitumor activity, P388 leukemia intraperitoneally transplanted to female CDF1 mice (Test 3). The note with it: intraperitoneal, one, five and nine days after transplantation. Also noted: species or system mouse; ILS: unit not given here. On the procedure:
In vivo antitumor activities of these compounds were also studied. P388 leukemia cells (10^6 cells/mouse) were intraperitoneally transplanted to female CDF1 mice. One, five and nine days later, each compound was intraperitoneally administered (at 1, 3 or 10 mg/kg) to the mice. As a blank test, 5% glucose was intraperitoneally administered at 10 ml/kg to mice. Based on the group of the mice in the blank test as a control group, the effects of the individual drugs are shown in terms of ILS. The term "ILS" is represented by the following formula: [formula]
When test animals survived 8 weeks after the administration, the number of those survived was recorded without calculation of ILS.

In assay [2] the test system is Colon 26 mouse colon cancer cells. The assay can be described thus: In vivo antitumor activity, Colon 26 subcutaneously transplanted to female CDF1 mice (Test 4). The note with it: caudal vein, tumor weight on day 15. The procedure: Prepared was a 1×10^7 cells/ml suspension of Colon 26 mouse colon cancer cells in HBSS (Hanks' Balanced Salt Solution). A 0.1 ml portion of the cell suspension was subcutaneously transplanted to a lateroabdominal part of each female CDF1 mouse. After the body weight of the mouse was measured on the following day of the transplantation of the tumor, a solution of a compound (5% glucose solution containing 5% of "Tween 80") was administered into the caudal vein of the mouse. On day 15, a tumor was excised and its weight was measured.
The percentage of the average tumor weight of each experiment group as calculated by supposing that the average tumor weight of the control group not administered with any drug was 100% was calculated as a T/C value.
Corresponding to each compound number, its T/C value is shown. The number in parentheses indicates the concentration of the drug when the T/C value was indicated.

As to `Cn1cc(C=O)cc1-c1nc2cc(C(=O)NCCC(=N)N)ccc2[nH]1`, the “binding to DNA indicated by Tm (in words)” value in assay [1] (melting temperature of double-stranded DNA) was “increased Tm value”.
Turning to `Cn1cc(NC(=O)c2ccc(N(CCCl)CCCl)cc2)cc1-c1nc2cc(C(=O)NCCC(=N)N)ccc2[nH]1` [Compound 1, 1H-2-[4-[4-[N,N-bis(2-chloroethyl)amino]benzoylamino]-1-methylpyrrol-2-yl]benzimidazole-5-[N-(2-amidinoethyl)]carboxamide hydrochloride], the “50% Inhibition” value with mouse B16 melanoma cells stood at 0.23 µg/mL. Also, in the assay on P388 leukemia cells (1 mg/kg), the ILS is given as 38. In addition, the T/C (in general, the result in the treated group divided by that in the control group, in per cent) in assay [2] (2 mg/Kg) is listed as 29%.
For the compound `Cn1cc(NC(=O)CCCc2ccc(N(CCCl)CCCl)cc2)cc1-c1nc2cc(C(=O)NCCC(=N)N)ccc2[nH]1` [Compound 4, 1H-2-[4-[4-[4-[N,N-bis(2-chloroethyl)amino]phenyl]butylylamino]-1-methylpyrrol-2-yl]benzimidazole-5-[N-(2-amidinoethyl)]carboxamide hydrochloride], the ΔTm (commonly the shift of the melting midpoint relative to a reference) in assay [1] was 17 °C. For the same compound, the “50% Inhibition” value in the assay with mouse B16 melanoma cells worked out at 0.04 µg/mL.
Regarding `Cn1cc(NC=O)cc1-c1nc2cc(C(=O)NCCC(=N)N)ccc2[nH]1` [Compound 318, 1H-2-(4-Formylamino-1-methylpyrrol-2-yl)benzimidazole-5-[N-(2-amidinoethyl)]carboxamide hydrochloride], the ΔTm in assay [1] was determined as 7 °C. The IC50 with mouse B16 melanoma cells worked out at 19.8 µg/mL.
For `Cn1cc(NC(=O)CNC(=N)N)cc1-c1nc2cc(C(=O)Nc3ccc(N(CCCl)CCCl)cc3)ccc2[nH]1` [Compound 1001, 1H-2-[1-Methyl-4-(2-guanidinoacetylamino)pyrrol-2-yl]benzimidazole-5-[N-[4-[N,N-bis(2-chloroethyl)amino]phenyl]]carboxamide hydrochloride], the “50% Inhibition” value in the assay on mouse B16 melanoma cells is 0.53 µg/mL. In the assay with P388 leukemia cells (10 mg/kg), this compound had an ILS of 115. In assay [2] (6 mg/Kg), this compound registered a T/C of 7%.
With `Cc1cc(N(CCCl)CCCl)ccc1NC(=O)c1ccc2[nH]c(-c3cc(NC(=O)CNC(=N)N)cn3C)nc2c1` [Compound 1024, 1H-2-[1-Methyl-4-(guanidinoacetylamino)pyrrol-2-yl]benzimidazole-5-[N-[2-methyl-4-[N,N-bis(2-chloroethyl)amino]phenyl]]carboxamide dihydrochloride], the “50% Inhibition” value in the assay on mouse B16 melanoma cells is 0.586 µg/mL. The same compound came in with a T/C in assay [2] (10 mg/Kg) of 61%.
Regarding `CN(C)CCCC(=O)Nc1cc(-c2nc3cc(C(=O)Nc4ccc(N(CCCl)CCCl)cc4)ccc3[nH]2)n(C)c1` [Compound 1256, 1H-2-[1-Methyl-4-[4-(N,N-dimethylamino)butyrylamino]pyrrol-2-yl]benzimidazole-5-[N-[4-[N,N-bis-(2-chloroethyl)amino]phenyl]]carboxamide hydrochloride], the “50% Inhibition” value in the assay with mouse B16 melanoma cells worked out at 4.67 µg/mL. The same compound yielded a T/C in assay [2] (15 mg/Kg) of 60%.
Regarding `Cn1cc(NC(=O)c2cc(NC(=O)c3cc(NC=O)cn3C)cn2C)cc1C(=O)NCCC(=N)N` [Distamycin, distamycin, reference compound], the thermal shift (ΔTm) in assay [1] was 10 °C. Besides, in the assay with mouse B16 melanoma cells, the IC50 amounted to 36 µg/mL (≈ 74.8 µM).
